Test results reported in patent US11395486B2, “Antibacterial and antifungal composition” (ADEKA CORPORATION, priority 2017, dated 2022).

Assay: Evaluation of solution appearance
Format: physicochemical
Conditions: solution adjusted to the five-kind MIC, 4 mL tube, allowed to stand still, visually observed
Description: […] of each of the test microbial liquids was dispensed onto a microplate, and further, […] of each of antibacterial and antifungal solutions, in which the antibacterial and antifungal compositions prepared in Examples 1 and 2 and Comparative Examples 1 to 11 were adjusted to various concentrations with a culture medium, was added to the test microbial liquid, followed by stirring, to obtain a mixed solution. In this case, the pH of each of the antibacterial and antifungal solutions was from 6.89 to 7.24. Next, in each of the mixed solutions, culture was performed as follows. The bacterium mixed solution was cultured in a constant-temperature reservoir at 37° C. for 24 hours. The yeast mixed solution was cultured in the constant-temperature reservoir at 25° C. for 3 days. The mold mixed solution was cultured in the constant-temperature reservoir at 25° C. for 1 week. […] In addition, the appearance of the antibacterial and antifungal solution was evaluated as follows. […] The appearance of the solution was visually observed and evaluated in accordance with the following criteria. […]

| SMILES | Evaluation of solution appearance |
| --- | --- |
| OCc1ccccc1 [Comparative Example 6, benzyl alcohol] | ◯ |
| O=C([O-])c1ccccc1.[Na+] [compound 7, sodium benzoate] | ◯ |
